Assay [1] can be described thus: Antiplatelet activity in human platelet rich plasma assessed as inhibition of ADP-induced platelet aggregation preincubated for 5 mins followed by ADP addition and measured after 5 mins. In kind it is functional, cell-based.
In assay [2] the target is T1, P2Y purinoceptor 12 (Homo sapiens, UniProt Q9H244). The assay is described as follows: Displacement of [3H]2MeSADP from human P2Y12 expressed in U2OS cell membranes incubated for 60 mins by scintillation counting method. Further details: species or system Membrane. (Loss of bound radioactivity is the signal in a displacement assay; it reports binding, not function.)
T1 sequence (Q9H244 whole entry): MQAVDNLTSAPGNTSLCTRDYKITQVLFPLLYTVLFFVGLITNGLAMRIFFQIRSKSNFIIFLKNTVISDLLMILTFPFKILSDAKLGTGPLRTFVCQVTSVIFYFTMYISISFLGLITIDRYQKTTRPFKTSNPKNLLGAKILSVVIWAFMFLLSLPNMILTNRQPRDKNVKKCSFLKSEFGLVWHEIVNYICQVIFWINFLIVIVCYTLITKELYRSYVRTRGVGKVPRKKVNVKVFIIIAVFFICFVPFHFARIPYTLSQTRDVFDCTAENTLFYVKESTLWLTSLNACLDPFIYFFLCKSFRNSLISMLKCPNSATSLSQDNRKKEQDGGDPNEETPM

Assay [3] deals with T1, P2Y purinoceptor 12. Kind of assay: Binding affinity to human P2Y12 expressed in astrocytoma cells. The class given is cell-based, Astrocyte.
Assay [4] in a line: Antiplatelet activity in human platelet rich plasma assessed as inhibition of ADP-induced platelet aggregation preincubated for 2 mins followed by ADP addition and measured after 6 mins by Born method. The class given is functional, cell-based.
Assay [5] has as its system Blood. Kind of assay: Ex vivo inhibition of platelet aggregation in Sprague-Dawley rat blood at 10 mg/kg, po measured after 2 hrs. The arrangement: scale not given: the % may be the effect or the level left. In kind it is functional.
The subject of assay [6] is Blood. Kind of assay: Ex vivo inhibition of platelet aggregation in Sprague-Dawley rat blood at 3 mg/kg, iv measured after 2 hrs. In kind it is functional. The arrangement: scale not given: the % may be the effect or the level left.
For assay [7], the system named is Blood. The assay is described as follows: Ex vivo inhibition of platelet aggregation in Sprague-Dawley rat blood at 1 mg/kg, iv measured after 2 hrs. The class given is functional.
A short description of assay [8]: Antiplatelet activity in human platelet rich plasma assessed as inhibition of ADP-induced platelet aggregation preincubated for 1 min followed by ADP addition and measured after 6 to 8 mins by Born method. The class given is functional, cell-based.
Assay [9] can be described thus: Antiplatelet activity in rat platelet rich plasma assessed as inhibition of ADP-induced platelet aggregation preincubated for 1 min followed by ADP addition and measured after 6 mins by Born method. The class given is functional, cell-based.
For assay [10], the system named is Blood. The assay is described as follows: Ex vivo inhibition of platelet aggregation in Sprague-Dawley rat blood at 3 mg/kg, po measured after 2 hrs. In kind it is functional.
A short description of assay [11]: Antiplatelet activity in human platelet rich plasma assessed as inhibition of ADP-induced platelet aggregation preincubated for 2 mins followed by ADP addition for 5 mins. The class given is functional, cell-based.
Assay [12] concerns Blood. The assay is described as follows: Ex vivo inhibition of platelet aggregation in Sprague-Dawley rat blood at 3 mg/kg, iv measured after 30 mins. In kind it is functional. The following applies: 0.5 h.
For assay [13], the species on record is Rattus norvegicus. Kind of assay: Anti-platelet aggregation activity in Sprague-Dawley rat assessed as reduction in bleeding time. In kind it is functional.
The target in assay [14] is T1, P2Y purinoceptor 12. Kind of assay: Displacement of tritium-labeled 2MeSADP from human P2Y12 expressed in CHO cells measured after 2 hrs by scintillation counting method. In kind it is cell-based.
The target of assay [15] is T1, P2Y purinoceptor 12. Kind of assay: Displacement of [3H]2MeSADP from P2Y12 (unknown origin).
Assay [16] can be described thus: Antiplatelet activity in human platelet rich plasma assessed as inhibition of ADP-induced platelet aggregation preincubated for 5 mins followed by ADP addition and measured after 20 mins by microplate reader analysis. In kind it is functional, cell-based.
A short description of assay [17]: Antiplatelet activity in human platelet rich plasma assessed as inhibition of CaCl2/fibrinogen-induced platelet aggregation preincubated for 5 mins followed by CaCl2/fibrinogen addition by microplate reader analysis. The class given is functional, cell-based.
Assay [18] addresses T1, P2Y purinoceptor 12. The assay is described as follows: Inhibition of 2-MeS-ADP induced P2Y12 (unknown origin) signalling expressed in CHO cells membrane incubated for 45 mins by 35S-GTPgammaS assay. In kind it is functional, cell membranes.

The term IC50 denotes the midpoint of a concentration-inhibition curve. By Ki is commonly meant a measure of affinity in units of concentration, obtained from inhibition or displacement. Usually inhibition in vivo stands for the change of the read-out against control, counted positive when it falls. For orientation: ED50 means the dose at which the effect has come halfway, by size or by number of responders.

Some results are limits rather than exact numbers.

For the compound `COc1cc(/C=C/c2cc(O)cc(O)c2)ccc1O`, the IC50 in assay [1] was determined as 1850 nM. Take `O=C(/C=C/c1ccc(O)c2c1[C@H](C(=O)O[C@H](Cc1ccc(O)c(O)c1)C(=O)O)[C@@H](c1ccc(O)c(O)c1)O2)O[C@H](Cc1ccc(O)c(O)c1)C(=O)O`: the affinity in assay [2] corresponds to a Ki of 36400 nM.

For `Cc1cc(C)cc(Nc2cc(S(=O)(=O)O)c(N)c3c2C(=O)c2ccccc2C3=O)c1`, in assay [3], the Ki is 63 nM. As for `Cc1c(N)cccc1Nc1cc(S(=O)(=O)O)c(N)c2c1C(=O)c1ccccc1C2=O`, the Ki in [3] stood at 25 nM.

Regarding `O=C(O)CC[C@H](NC(=O)c1cc(OCC(=O)N2CCC[C@H]2C(=O)NC2CCC2)n(-c2ccccc2)n1)C(=O)N1CCN(C(=O)OC2CCC2)CC1`, the IC50 in [4] was no more than 11 nM. Still for that read-out and setting: the figure for `CCOC(=O)N1CCN(C(=O)[C@H](CCC(=O)O)NC(=O)c2cc(OCC(=O)N3CCC[C@H]3C(=O)NC3CC3)n(-c3ccccc3)n2)CC1` is no more than 11 nM; for `CCOC(=O)N1CCN(C(=O)[C@H](CCC(=O)O)NC(=O)c2cc(OCC(=O)N3CCC[C@H]3C(=O)NC3CCCC3)n(-c3ccccc3)n2)CC1` it is no more than 11 nM. On to `CCCC(=O)c1cnn(-c2ccc(NC(=O)c3cn(CC(=O)N4CCN(C)CC4)c4ccc(Cl)cc34)nn2)c1C`, for which the Activity is listed as 73.5% in assay [5] and 79% in [6]. In [5], `CCCC(=O)c1cnn(-c2cnc(NC(=O)c3cn(CC(=O)N4CCN(C)CC4)c4ccc(Cl)cc34)cn2)c1C` came in with an Activity of 76%. In [7], this compound came in with an inhibition in vivo at 1 mg/kg of 86.3%.

As for `CCCC(=O)c1cnn(C2CCN(NC(=O)c3cn(CC(=O)N4CCN(C)CC4)c4ccc(Cl)cc34)CC2)c1C`, in assay [7], the inhibition in vivo at 1 mg/kg was determined as 88%. Also, the values for the IC50 in assay [8] and in assay [9] were 25 nM and 43 nM, respectively. In assay [10], this compound gave an inhibition in vivo at 3 mg/kg of 72%. On to `Cc1cc(Nc2ccc(Nc3ccccc3)c(S(=O)(=O)O)c2)c2c(c1N)C(=O)c1ccccc1C2=O`, for which the Ki in assay [3] was found to be 51 nM. As for `CCCCOC(=O)N1CCN(C(=O)[C@H](CP(=O)(OCOC(=O)OC(C)C)OCOC(=O)OC(C)C)NC(=O)c2cc(N3CC[C@H](OC)C3)nc(-c3ccccc3)n2)CC1`, the IC50 in assay [11] is 8 nM. For `CCCC(=O)c1cnn(C2CCC(NC(=O)c3cn(CC(=O)N4CCN(C)CC4)c4ccc(Cl)cc34)CC2)c1C` (stereo not given), the IC50 in [8] came out at 270 nM; in assay [9] it was 91 nM. The inhibition in vivo at 3 mg/kg stood at 79% in assay [12] and 42.8% in [10].

As to `COC(=O)C(c1ccccc1Cl)N1CCc2sc(OC(=O)C(N)CC(C)C)cc2C1.Cl` (stereo not given), the ED50 in assay [13] amounted to 2.16 mg/kg. `CCCCOC(=O)N1CCN(C(=O)[C@H](CCC(=O)O)NC(=O)c2nc(-c3ccccc3)sc2N2CC[C@H](OC)C2)CC1`: the IC50 in [14] came to 1 nM. Turning to `C[C@H]([C@@H](O)[C@H](O)[C@@H](C)C(C)(C)C)[C@H]1CC[C@H]2[C@@H]3CC[C@H]4C[C@@H](OS(=O)(=O)O)[C@H](OS(=O)(=O)O)C[C@]4(C)[C@H]3CC[C@]12C`, in assay [15], the IC50 was 2200 nM. Regarding `CCCCOC(=O)N1CCN(C(=O)[C@H](CP(=O)(O)O)NC(=O)c2csc(-c3ccccc3)n2)CC1`, the IC50 in assay [14] came out at 1 nM. Consider `CCOC(=O)N1CCN(C(=O)[C@H](CCC(=O)O)NC(=O)c2cc(OCC(=O)N[C@@H](C)C(=O)O)n(-c3ccccc3)n2)CC1`, for which, in assay [16], the IC50 is 1480 nM. Turning to `CCOC(=O)N1CCN(C(=O)[C@H](CCC(=O)O)NC(=O)c2cc(OCC(=O)N3CCC[C@H]3C(=O)NCC(F)(F)F)n(-c3ccccc3)n2)CC1`, in assay [4], the IC50 was no more than 11 nM. `C[C@H](CC[C@@H](C)C(C)(C)C)[C@H]1CC[C@H]2[C@@H]3C[C@H](OS(=O)(=O)O)[C@H]4C[C@@H](OS(=O)(=O)O)[C@H](OS(=O)(=O)O)C[C@]4(C)[C@H]3CC[C@]12C`: the IC50 in assay [15] came to 480 nM. As to `CCCSc1nc(N[C@@H]2C[C@H]2c2ccccc2)c2nnn([C@@H]3C=C[C@H](OCC(=O)O)[C@@H](O)[C@H]3O)c2n1`, the IC50 in assay [17] amounted to 2910 nM. In [18], `CCCC(=O)c1cc(C#N)c(N(C(=O)C2CCNCC2)S(=O)(=O)Cc2cccc(F)c2)nc1C` showed an IC50 of 100 nM.

Values taken from ChEMBL document CHEMBL5126507, “P2Y12 antagonists: Approved drugs, potential naturally isolated and synthesised compounds, and related in-silico studies” (Eur J Med Chem, 2022).
